According to US20240132431A1, “METHOD FOR ALKYLATING ACIDIC FUNCTIONAL GROUP” (Chugai Seiyaku Kabushiki Kaisha, priority 2021, published 2024):

Target: T1, Bcl-2 protein (Recombinant Human Bcl-2 Protein) (Homo sapiens, UniProt P10415)
T1 construct: purchased Novus NBP2-34889
Assay: Binding evaluation of mixture library compounds to Bcl-2 using AS-MS (affinity selection mass spectrometry)
Conditions: for ASMS ratio (%) n = 1 / ASMS ratio (%) n = 2: ASMS Ratio(%)=(A−C)/B×100; for ASMS ratio (%) n = 1: replicate n = 1; for ASMS ratio (%) n = 2: replicate n = 2
In short: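 ASMS Ratio (%) was calculated as (A−C)/B×100, where A is the protein sample after SEC, B the protein-free sample without SEC and C the protein-free sample after SEC. Each compound was at […] in a 1200-member pool with 20 μM Bcl-2, incubated 1 h at 23° C.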

[1] = AS-MS, mixture of 1200 compounds, Bcl-2
[2] = AS-MS on the mixture of 1200 library compounds

T1 sequence (P10415 whole entry): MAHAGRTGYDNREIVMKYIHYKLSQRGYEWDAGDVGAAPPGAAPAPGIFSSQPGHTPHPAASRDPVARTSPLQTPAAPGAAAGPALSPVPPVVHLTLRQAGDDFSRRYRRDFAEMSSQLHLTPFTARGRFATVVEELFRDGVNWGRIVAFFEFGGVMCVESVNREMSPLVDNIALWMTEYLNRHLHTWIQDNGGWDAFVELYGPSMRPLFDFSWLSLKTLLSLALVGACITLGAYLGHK

| Compound | ASMS ratio (%) (n = 1) | ASMS ratio (%) (n = 2) | also measured |
| --- | --- | --- | --- |
| CCOc1cncc(C#Cc2cc(C(=O)N3CCN(c4ccc(C(=O)NCC56CC7CC(CC(C7)C5)C6)nn4)CC3)cc(C(F)(F)F)c2)c1 [B1A020-01, N-(1-Adamantylmethyl)-6-[4-[3-[2-(5-ethoxypyridin-3-yl)ethynyl]-5-(trifluoromethyl)benzoyl]piperazin-1-yl]pyridazine-3-carboxamide] |  |  | ASMS ratio (%) n = 1 [1]: −4.3%; ASMS ratio (%) n = 2 [1]: −10.5% |
| CCOc1cccc(-c2ccc(C(=O)N3CCN(c4ccc(C(=O)NS(=O)(=O)CC56CC7CC(CC(C7)C5)C6)nn4)CC3)cc2C)c1 [B2A003-01, N-(1-Adamantylmethylsulfonyl)-6-[4-[4-(3-ethoxyphenyl)-3-methylbenzoyl]piperazin-1-yl]pyridazine-3-carboxamide] |  |  | ASMS ratio (%) n = 1 (AS-MS, mixture library, Bcl-2): 21.0%; ASMS ratio (%) n = 2 (AS-MS, mixture library, Bcl-2): 11.0% |
| CCOc1cncc(-c2ccccc2CN2CCN(c3ccc(C(=O)NCC(F)(F)F)nn3)CC2)c1 [B1K072-01, 6-[4-[[2-(5-Ethoxypyridin-3-yl)phenyl]methyl]piperazin-1-yl]-N-(2,2,2-trifluoroethyl)pyridazine-3-carboxamide] |  |  | ASMS ratio (%) n = 1 [1]: −0.6%; ASMS ratio (%) n = 2 [1]: 1.7% |
| CCOc1cncc(-c2cc(C(=O)N3CCN(c4ccc(C(=O)NCC56CC7CC(CC(C7)C5)C6)nn4)CC3)cc(C(C)(C)C)c2)c1 [B1A016-01, N-(1-Adamantylmethyl)-6-[4-[3-tert-butyl-5-(5-ethoxypyridin-3-yl)benzoyl]piperazin-1-yl]pyridazine-3-carboxamide] |  |  | ASMS ratio (%) n = 1 [1]: 12.1%; ASMS ratio (%) n = 2 [1]: −4.6% |
| CCOc1cncc(-c2ccc(CN3CCN(c4ccc(C(=O)N(C)CC56CC7CC(CC(C7)C5)C6)nn4)CC3)c3ccccc23)c1 [B3A092-01, N-(1-Adamantylmethyl)-6-[4-[[4-(5-ethoxypyridin-3-yl)naphthalen-1-yl]methyl]piperazin-1-yl]-N-methylpyridazine-3-carboxamide] |  |  | ASMS ratio (%) n = 1 [2]: 1.1%; ASMS ratio (%) n = 2 [2]: −1.9% |
| 6-[4-[3-[4-(3-Ethoxyphenyl)pyrazol-1-yl]-5-(trifluoromethyl)benzoyl]piperazin-1-yl]-N-propylpyridazine-3-carboxamide [B1M024-01] |  |  | ASMS ratio (%) n = 1 [1]: 0.0%; ASMS ratio (%) n = 2 [1]: 0.0% |
| CCOc1cccc(-c2ccc(C(=O)N3CCN(c4ccc(C(=O)NS(=O)(=O)CCC(F)(F)F)cc4)CC3)c3ccccc23)c1 [B2N035-01, 4-[4-[4-(3-Ethoxyphenyl)naphthalene-1-carbonyl]piperazin-1-yl]-N-(3,3,3-trifluoropropylsulfonyl)benzamide] | 0.0 | 0.0 |  |
| CCOc1cncc(-c2ccc(CN3CCN(c4ccc(C(=O)NS(C)(=O)=O)nn4)CC3)c(CC)c2)c1 [B2I076-01, 6-[4-[[4-(5-Ethoxypyridin-3-yl)-2-ethylphenyl]methyl]piperazin-1-yl]-N-methylsulfonylpyridazine-3-carboxamide] | 0.2 | −3.2 |  |
| CCOc1cncc(-c2csc(CN3CCN(c4ccc(C(=O)NS(=O)(=O)CCC(F)(F)F)cc4)CC3)c2)c1 [B2N068-01] | 0.0 | 0.5 |  |
| CCOc1cccc(-c2ccc(C(C)N3CCN(c4ccc(C(=O)Nc5ccc(OC)cc5)cc4)CC3)c(F)c2)c1 (stereo not shown) [B1O099-01, 4-[4-[1-[4-(3-Ethoxyphenyl)-2-fluorophenyl]ethyl]piperazin-1-yl]-N-(4-methoxyphenyl)benzamide] |  |  | ASMS ratio (%) n = 1 [2]: 4.7%; ASMS ratio (%) n = 2 [2]: 1.7% |
| CCOc1cncc(-c2cnn(-c3cc(C(=O)N4CCN(c5ccc(C(=O)NS(=O)(=O)c6ccc(NCCSc7ccccc7)c([N+](=O)[O-])c6)nn5)CC4)cc(C(F)(F)F)c3)c2)c1 [B2Q022-01, 6-[4-[3-[4-(5-Ethoxypyridin-3-yl)pyrazol-1-yl]-5-(trifluoromethyl)benzoyl]piperazin-1-yl]-N-[3-nitro-4-(2-phenylsulfanylethylamino)phenyl]sulfonylpyridazine-3-carboxamide] |  |  | ASMS ratio (%) n = 1 (AS-MS, mixture library, Bcl-2): 13.8%; ASMS ratio (%) n = 2 (AS-MS, mixture library, Bcl-2): 23.6% |
| CCOc1cccc(-c2ccc(C(=O)N3CCN(c4ccc(C(=O)NS(C)(=O)=O)nn4)CC3)c3ccccc23)c1 [B2I013-01, 6-[4-[4-(3-Ethoxyphenyl)naphthalene-1-carbonyl]piperazin-1-yl]-N-methylsulfonylpyridazine-3-carboxamide] |  |  | ASMS ratio (%) n = 1 (AS-MS, mixture library, Bcl-2): 0.0%; ASMS ratio (%) n = 2 (AS-MS, mixture library, Bcl-2): 0.0% |
| CCOc1cccc(-c2cc(C(=O)N3CCN(c4ccc(C(=O)NS(=O)(=O)CC56CC7CC(CC(C7)C5)C6)cc4)CC3)cc(C(C)(C)C)c2)c1 [B2A037-01, N-(1-Adamantylmethylsulfonyl)-4-[4-[3-tert-butyl-5-(3-ethoxyphenyl)benzoyl]piperazin-1-yl]benzamide] |  |  | ASMS ratio (%) n = 1 (AS-MS, mixture library, Bcl-2): 3.0%; ASMS ratio (%) n = 2 (AS-MS, mixture library, Bcl-2): 0.0% |
| CCOc1cncc(C#Cc2cc(C(=O)N3CCN(c4ccc(C(=O)NS(=O)(=O)C(C)(C)C)nn4)CC3)cc(C(F)(F)F)c2)c1 [B2L020-01, N-tert-Butylsulfonyl-6-[4-[3-[2-(5-ethoxypyridin-3-yl)ethynyl]-5-(trifluoromethyl)benzoyl]piperazin-1-yl]pyridazine-3-carboxamide] | 0.0 | 0.0 |  |
| CCOc1cccc(-c2cc(CN3CCN(c4ccc(C(=O)NS(=O)(=O)C(C)(C)C)cc4)CC3)cc(OC(F)(F)F)c2)c1 [B2L063-01, N-tert-Butylsulfonyl-4-[4-[[3-(3-ethoxyphenyl)-5-(trifluoromethoxy)phenyl]methyl]piperazin-1-yl]benzamide] | 0.0 | 0.0 |  |
| CCOc1cncc(C#Cc2cc(C(=O)N3CCN(c4ccc(C(=O)NS(C)(=O)=O)cc4)CC3)cc(C(F)(F)F)c2)c1 [B2I042-01, 4-[4-[3-[2-(5-Ethoxypyridin-3-yl)ethynyl]-5-(trifluoromethyl)benzoyl]piperazin-1-yl]-N-methylsulfonylbenzamide] | 0.0 | 0.0 |  |
| CCOc1cncc(-c2ccc(CN3CCN(c4ccc(C(=O)NS(=O)(=O)C(C)(C)C)nn4)CC3)cc2F)c1 [B2L078-01] | 1.1 | −0.7 |  |
| CCOc1cncc(-c2ccc(C(=O)N3CCN(c4ccc(C(=O)NS(=O)(=O)c5ccc(NCCSc6ccccc6)c([N+](=O)[O-])c5)cc4)CC3)c3ccccc23)c1 [B2Q036-01, 4-[4-[4-(5-Ethoxypyridin-3-yl)naphthalene-1-carbonyl]piperazin-1-yl]-N-[3-nitro-4-(2-phenylsulfanylethylamino)phenyl]sulfonylbenzamide] |  |  | ASMS ratio (%) n = 1 (AS-MS, mixture library, Bcl-2): 0.0%; ASMS ratio (%) n = 2 (AS-MS, mixture library, Bcl-2): −6.0% |
| CCOc1cncc(-c2cc(C(=O)N3CCN(c4ccc(C(=O)NS(=O)(=O)CCC(F)(F)F)cc4)CC3)cc(C(C)(C)C)c2)c1 [B2N038-01, 4-[4-[3-tert-Butyl-5-(5-ethoxypyridin-3-yl)benzoyl]piperazin-1-yl]-N-(3,3,3-trifluoropropylsulfonyl)benzamide] | 0.0 | 0.0 |  |

Second part, led by results:

| ASMS ratio (%) (n = 1) | ASMS ratio (%) (n = 2) | Compound | also measured |
| --- | --- | --- | --- |
| −1.4 | 0.1 | CCOc1cccc(-c2cnn(-c3cc(C(=O)N4CCN(c5ccc(C(=O)NS(=O)(=O)CCC(F)(F)F)cc5)CC4)cc(C(F)(F)F)c3)c2)c1 [B2N043-01, 4-[4-[3-[4-(3-Ethoxyphenyl)pyrazol-1-yl]-5-(trifluoromethyl)benzoyl]piperazin-1-yl]-N-(3,3,3-trifluoropropylsulfonyl)benzamide] |  |
| 21.4 | 11.4 | CCOc1cncc(-c2ccccc2CN2CCN(c3ccc(C(=O)NS(=O)(=O)c4ccc(NCCSc5ccccc5)c(C(F)(F)F)c4)nn3)CC2)c1 [B2R072-01, 6-[4-[[2-(5-Ethoxypyridin-3-yl)phenyl]methyl]piperazin-1-yl]-N-[4-(2-phenylsulfanylethylamino)-3-(trifluoromethyl)phenyl]sulfonylpyridazine-3-carboxamide] |  |
| 0.0 | 0.0 | CCOc1cccc(-c2ccc(CN3CCN(c4ccc(C(=O)NS(=O)(=O)CCC(F)(F)F)nn4)CC3)c3ccccc23)c1 [B2N091-01, 6-[4-[[4-(3-Ethoxyphenyl)naphthalen-1-yl]methyl]piperazin-1-yl]-N-(3,3,3-trifluoropropylsulfonyl)pyridazine-3-carboxamide] |  |
| 3.8 | 0.3 | CCOc1cccc(-c2ccc(CN3CCN(c4ccc(C(=O)NS(=O)(=O)c5ccc(NCCSc6ccccc6)c(C(F)(F)F)c5)cc4)CC3)c3ccccc23)c1 [B2R065-01] |  |
| 8.0 | 0.0 | CCOc1cccc(-c2csc(CN3CCN(c4ccc(C(=O)NS(=O)(=O)c5ccc(NCCSc6ccccc6)c(C(F)(F)F)c5)cc4)CC3)c2)c1 [B2R067-01, 4-[4-[[4-(3-Ethoxyphenyl)thiophen-2-yl]methyl]piperazin-1-yl]-N-[4-(2-phenylsulfanylethylamino)-3-(trifluoromethyl)phenyl]sulfonylbenzamide] |  |
| 21.1 | −8.8 | CCOc1cccc(-c2cc(CN3CCN(c4ccc(C(=O)NS(=O)(=O)c5ccc(NCCSc6ccccc6)c(C(F)(F)F)c5)nn4)CC3)cc(OCC)c2)c1 [B2R081-01, 6-[4-[[3-Ethoxy-5-(3-ethoxyphenyl)phenyl]methyl]piperazin-1-yl]-N-[4-(2-phenylsulfanylethylamino)-3-(trifluoromethyl)phenyl]sulfonylpyridazine-3-carboxamide] |  |
| 2.5 | 2.8 | CCOc1cncc(-c2cc(CN3CCN(c4ccc(C(=O)NS(=O)(=O)CCC(F)(F)F)nn4)CC3)cc(OCC)c2)c1 [B2N082-01] |  |
